Reference: BindingDB's records for doi:10.1021/acs.jmedchem.9b00966 (2019)

How the values were obtained:
[1] = Reversal of P-gp mediated multidrug resistance in human DU145-TxR cells overexpressing P-gp assessed as potentiation of paclitaxel-induced cytotoxicity by measuring paclitaxel IC50 at 3 uM after 48 hrs by MTT assay (Rvb = 2120 nM)
[2] = Reversal of P-gp mediated multidrug resistance in human DU145-TxR cells overexpressing P-gp assessed as potentiation of paclitaxel-induced cytotoxicity by measuring paclitaxel IC50 at 5 uM after 48 hrs by MTT assay (Rvb = 2120 nM)
[3] = Reversal of P-gp mediated multidrug resistance in human DU145-TxR cells overexpressing P-gp assessed as potentiation of paclitaxel-induced cytotoxicity by measuring paclitaxel IC50 at 7 uM after 48 hrs by MTT assay (Rvb = 2120 nM)
[4] = Reversal of P-gp mediated multidrug resistance in human DU145-TxR cells overexpressing P-gp assessed as potentiation of paclitaxel-induced cytotoxicity by measuring paclitaxel IC50 at 10 uM after 48 hrs by MTT assay (Rvb = 2120 nM)

Row | SMILES | IC50 [1] [nM] | IC50 [2] [nM] | IC50 [3] [nM] | IC50 [4] [nM]
1 | Cc1cc(C)c(-c2cc(NC(=O)CSCC(=O)NC(c3ccccc3)c3ccccc3)n(-c3ccccc3)n2)cc1C | 160 | 56 | 16 | 11
2 | Cc1cc(C)c(-c2cc(NC(=O)CSc3n[nH]c(C4CC4)n3)n(-c3ccccc3)n2)cc1C | 629 | 194 | 59 | 21
3 | Cc1cc(C)c(-c2cc(NC(=O)CSCC(=O)NC34CC5CC(CC(C5)C3)C4)n(-c3ccccc3)n2)cc1C | 231 | 109 | 21 | 13
4 | Cc1cc(C)c(-c2cc(NC(=O)CSCC(=O)Nc3ccc4ncsc4c3)n(-c3ccccc3)n2)cc1C | 172 | 5.7 | 2.9 | 0.78
5 | Cc1cc(C)c(-c2cc(NC(=O)CSCC(=O)c3ccc4c(c3)Cc3ccccc3-4)n(-c3ccccc3)n2)cc1C | 266 | 154 | 62 | 57
6 | Cc1cc(C)c(-c2cc(NC(=O)CSCC(=O)N3c4ccccc4CCc4ccccc43)n(-c3ccccc3)n2)cc1C | 164 | 52 | 6 | 4
7 | Cc1cc(C)c(-c2cc(NC(=O)CSCC(=O)Nc3ccc4ccccc4c3)n(-c3ccccc3)n2)cc1C | 153 | 46 | 7 | 2
8 | Cc1cc(C)c(-c2cc(NC(=O)CSc3cccc(NC(=O)c4cncc(Br)c4)c3)n(-c3ccccc3)n2)cc1C | 56 | 20 | 9 | 6
9 | COc1cc(NC(=O)CSCC(=O)Nc2cc(-c3cc(C)c(C)cc3C)nn2-c2ccccc2)cc(OC)c1OC | 185 | 1.9 | 0.64 | 0.07
10 | Cc1cc(C)c(-c2cc(NC(=O)CSc3nnc4c(n3)[nH]c3ccccc34)n(-c3ccccc3)n2)cc1C | 426 | 21 | 17 | 17
11 | Cc1cc(C)c(-c2cc(NC(=O)CSCC(=O)NCc3ccc(F)cc3)n(-c3ccccc3)n2)cc1C | 458 | 379 | 192 | 131
